Each structure is given as a SMILES string. Active and inactive are the calls of the source. The calls are words filed in the database; no cut-off is given here.

The text below walks through data of ChEMBL document CHEMBL5653603 (J Am Chem Soc, 2010).

One data set has as its system Primary cortical neuron. The data set is described as follows: Inhibition of HDAC6 in Sprague-Dawley rat primary cortical neurons assessed as induction of alpha-tubulin hyperacetylation at 2.5 uM measured after 30 mins by Western blot analysis. Format: cell-based. In general terms: In western blotting, separated proteins are transferred to a membrane and probed.
The target in data set [1] is T1, Protein deacetylase HDAC6 (Homo sapiens, UniProt Q9UBN7).
T1 sequence (Q9UBN7 whole entry): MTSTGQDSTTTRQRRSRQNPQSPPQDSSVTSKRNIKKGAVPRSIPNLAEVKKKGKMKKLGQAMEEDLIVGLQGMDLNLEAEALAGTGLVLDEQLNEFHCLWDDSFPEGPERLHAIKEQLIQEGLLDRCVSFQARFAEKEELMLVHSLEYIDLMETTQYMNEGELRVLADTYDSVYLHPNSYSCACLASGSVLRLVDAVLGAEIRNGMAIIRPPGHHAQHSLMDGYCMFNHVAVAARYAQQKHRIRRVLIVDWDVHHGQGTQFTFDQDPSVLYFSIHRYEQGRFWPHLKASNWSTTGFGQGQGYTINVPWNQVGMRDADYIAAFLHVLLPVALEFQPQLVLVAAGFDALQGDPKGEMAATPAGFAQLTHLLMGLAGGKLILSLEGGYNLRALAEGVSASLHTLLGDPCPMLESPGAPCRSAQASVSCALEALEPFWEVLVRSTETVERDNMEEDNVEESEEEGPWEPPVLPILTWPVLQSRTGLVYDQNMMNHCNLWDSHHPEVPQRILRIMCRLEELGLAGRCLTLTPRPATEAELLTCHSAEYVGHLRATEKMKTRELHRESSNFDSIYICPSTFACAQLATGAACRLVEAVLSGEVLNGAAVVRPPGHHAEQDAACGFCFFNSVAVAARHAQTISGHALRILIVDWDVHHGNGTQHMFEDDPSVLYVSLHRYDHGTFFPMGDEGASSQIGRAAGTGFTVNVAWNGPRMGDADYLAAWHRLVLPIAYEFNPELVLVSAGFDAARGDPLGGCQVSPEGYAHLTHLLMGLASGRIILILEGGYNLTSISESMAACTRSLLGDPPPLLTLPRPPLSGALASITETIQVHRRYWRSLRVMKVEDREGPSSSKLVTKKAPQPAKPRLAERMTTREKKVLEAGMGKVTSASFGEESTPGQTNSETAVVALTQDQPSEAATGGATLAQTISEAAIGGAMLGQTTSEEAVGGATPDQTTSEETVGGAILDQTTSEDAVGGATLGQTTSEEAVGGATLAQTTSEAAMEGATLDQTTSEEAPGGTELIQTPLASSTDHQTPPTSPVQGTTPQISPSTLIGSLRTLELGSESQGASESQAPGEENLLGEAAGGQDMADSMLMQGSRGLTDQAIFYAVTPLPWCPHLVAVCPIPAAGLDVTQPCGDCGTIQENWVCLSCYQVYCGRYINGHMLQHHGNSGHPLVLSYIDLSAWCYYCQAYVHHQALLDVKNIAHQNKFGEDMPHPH
The data set can be described thus: Inhibition of recombinant human HDAC6 using fluorogenic RHKKAc peptide as substrate by fluorescence assay.

A further data set deals with Histone deacetylase 1 (Homo sapiens, UniProt Q13547). The data set is described as follows: Inhibition of recombinant human HDAC1 using fluorogenic RHKKAc peptide as substrate by fluorescence assay. Format: single protein.
The next data set is filed under the species Homo sapiens. The data set can be described thus: Selectivity ratio of IC50 for recombinant human HDAC1 to IC50 for recombinant human HDAC6.
Data set [2] can be described thus: Inhibition of class 1 HDAC in Sprague-Dawley rat primary cortical neurons assessed as induction of histone hyperacetylation at 10 uM measured after 30 mins by Western blot analysis. As to conditions: primary cortical neuron, 0.5 h. It is filed as cell-based.
Data set [3] has as its system Cortical neurone. The data set is described as follows: Neuroprotective activity against HCA-induced Sprague-Dawley rat primary cortical neuron death assessed as increase in neuron survival measured after 24 hrs by MTT assay. As to conditions: dose 1-10 µM. Format: functional, cell-based. Background: Formazan colour is commonly taken as a measure of viable cells.
A short description of data set [4]: Neurotoxicity against Sprague-Dawley rat primary cortical neurons assessed as reduction in neuron survival at 1 to 10 uM measured after 24 hrs by MTT assay. It is filed as toxicity, cell-based. As to conditions: cortical neurone, dose 1-10 µM.
The test system of data set [5] is Cortical neurone. The data set is described as follows: Neuroprotective activity against HCA-induced Sprague-Dawley rat primary cortical neuron death assessed as increase in neuron survival at 0.5 uM measured after 24 hrs by MTT assay. It is filed as functional, cell-based.

Sequence of Histone deacetylase 1 (Q13547 whole entry): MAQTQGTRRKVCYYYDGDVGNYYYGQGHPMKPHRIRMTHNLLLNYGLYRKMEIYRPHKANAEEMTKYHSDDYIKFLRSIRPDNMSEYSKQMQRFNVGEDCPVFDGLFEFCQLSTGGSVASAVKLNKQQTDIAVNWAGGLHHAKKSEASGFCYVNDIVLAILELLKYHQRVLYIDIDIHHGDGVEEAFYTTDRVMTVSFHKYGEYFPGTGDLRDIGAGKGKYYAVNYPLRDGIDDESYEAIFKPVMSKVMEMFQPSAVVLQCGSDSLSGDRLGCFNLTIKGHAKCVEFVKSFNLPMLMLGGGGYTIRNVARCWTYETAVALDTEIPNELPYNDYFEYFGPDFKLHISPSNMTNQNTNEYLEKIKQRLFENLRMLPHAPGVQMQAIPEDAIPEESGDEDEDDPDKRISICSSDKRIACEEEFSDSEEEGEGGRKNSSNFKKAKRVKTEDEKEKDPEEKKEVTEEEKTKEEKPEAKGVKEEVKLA

As to `O=C(CCCCCCC(=O)Nc1ccc([C@H]2O[C@@H](CSc3nc(-c4ccccc4)c(-c4ccccc4)o3)C[C@@H](c3ccc(CO)cc3)O2)cc1)NO`, the inhibition result in the data set on Primary cortical neuron is “Active”.

Broadly, the IC50 is the point on the concentration scale where inhibition reaches its midpoint. As to `CN1CCc2c(n(Cc3ccc(C(=O)NO)cc3)c3ccccc23)C1`, the IC50 amounted to 0.001 µM in data set [1] and 5.18 µM on Histone deacetylase 1. Also, in the data set filed under Homo sapiens, the Ratio IC50 was found to be 3700.

Turning to `O=C(CCn1c2ccccc2c2ccccc21)NO`, the IC50 at Histone deacetylase 1 was over 30 µM.

Consider `O=C(CCCCCn1c2c(c3ccccc31)CCCC2)NO`, for which the values for the IC50 (in data set [1]; at Histone deacetylase 1) were 0.09 µM and 8.6 µM, respectively.

`O=C(NO)n1c2ccccc2c2ccccc21`: the IC50 (in data set [1]; on Histone deacetylase 1) was over 30 µM each time.

As for `CN1CCc2c(c3ccccc3n2Cc2ccc(C(=O)NO)cc2)C1.O=C(O)C(F)(F)F`, the “inhibition (INH)” value in data set [2] is given as “Active”. The Activity entry in the data set on Cortical neurone [3] was “Dose-Dependent Effect”; in data set [4], “Non-Toxic”. In addition, the inhibition result in the data set with Primary cortical neuron is “Active”.

For `O=C(NO)c1ccc(CCn2c3ccccc3c3ccccc32)cc1`, the concentration for half-maximal inhibition (IC50) in data set [1] was 0.18 µM; at Histone deacetylase 1 it was over 30 µM.

Regarding `O=C(Cc1ccc(Cn2c3ccccc3c3ccccc32)cc1)NO`, the IC50 in data set [1] is 0.301 µM; at Histone deacetylase 1, over 30 µM.

As for `CC(/C=C/C(=O)NO)=C\[C@@H](C)C(=O)c1ccc(N(C)C)cc1` [TRICHOSTATIN], the result in the data set with Cortical neurone [5] was Active. Also, the Activity result in data set [4] is “Toxic”.

Regarding `O=C(CCCCCn1c2ccccc2c2ccccc21)NO`, the IC50 in data set [1] is 0.062 µM; on Histone deacetylase 1 it was 14 µM. Moreover, the Ratio IC50 in the data set filed under Homo sapiens is 226.

As for `CN1CCc2c(n(CCCCCC(=O)NO)c3ccccc23)C1`, the IC50 was 0.55 µM in data set [1] and over 30 µM on Histone deacetylase 1.

As for `O=C(NO)c1ccc(Cn2c3ccccc3c3ccccc32)cc1`, the IC50 at Histone deacetylase 1 amounted to 10.9 µM. Also, the Ratio IC50 in the data set filed under Homo sapiens was 574.

As to `CN1CCc2c(c3ccccc3n2CCCCCC(=O)NO)C1`, the half-inhibitory concentration (IC50) worked out at 0.213 µM in data set [1] and 25.2 µM at Histone deacetylase 1.
